± gives the expanded uncertainty stated by the source.
Experiment: wn = mass fraction of the nth substance listed
Settings: 295 K; for surface tension liquid-gas: Wilhelmi plate; for mass density / viscosity: 101.3 kPa, Liquid; for mass density: Buoyancy - hydrostatic balance; for viscosity: Concentric cylinders viscometry

N#C[S-].[K+] [potassium thiocyanate] + O
Settings	mass density [kg/m3]	surface tension liquid-gas [mN/m]	viscosity [mPa·s]
w1 = 0.03	1013 ± 6	67.25 ± 1.1	0.834 ± 0.07
w1 = 0.05	1022 ± 6	61.98 ± 5.4	0.845 ± 0.07
w1 = 0.07	1031 ± 6	58.59 ± 13	0.825 ± 0.07
w1 = 0.1	1047 ± 6	57.2 ± 13	0.843 ± 0.07
w1 = 0.2	1100 ± 6	57.79 ± 4.6	0.881 ± 0.07
w1 = 0.3	1157 ± 6	–	0.916 ± 0.07
w1 = 0.4	1218 ± 6	55.45 ± 5.8	1.101 ± 0.07
w1 = 0.5	1283 ± 6	56.47 ± 5.4	1.321 ± 0.071
w1 = 0.6	1353 ± 6	62.93 ± 3.9	1.979 ± 0.071
w1 = 0.65	1392 ± 6	73.26 ± 1.2	2.588 ± 0.073
w1 = 0.68	1414 ± 6	74.62 ± 1.2	3.125 ± 0.074
